Literature values, collected in US20210378997A1, “INHIBITOR OF RENAL FIBROSIS IN DIABETIC NEPHROPATHY” (KYOTO PREFECTURAL PUBLIC UNIVERSITY CORPORATION, priority 2018, published 2021).

Settings: patients with diabetic nephropathy, 1-year medication

Cc1ccc(=O)n(-c2ccccc2)c1 [pirfenidone]
renal function (eGFR): significantly improved
